Measurements from patent US8741906B2 (priority 2011, dated 2014).

Experiments:
[1] = biological target: T1, human CB2 receptors (Homo sapiens, UniProt P34972); assay: functional cAMP assay, human CB2; assay type: cell-based; settings: CHO cells expressing human CB2, cAMP; read-out: human CB2 EC50
T1 construct: expressed in transfected cells; host or cells: CHO cells
In short: (§1)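 Cells are seeded 17-24 h ahead, then preincubated in Krebs Ringer bicarbonate buffer with 1 mM IBMX at 30 °C. Compounds act for 30 min at 30 °C, after which lysis and cAMP detection reagents are added for 2 h at room temperature. Time-resolved FRET gives cAMP content, and EC50 values are fitted from it.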

[2] = biological target: T2, human CB1 receptors (Homo sapiens, UniProt P21554); assay: functional cAMP assay, human CB1; assay type: cell-based; settings: CHO cells expressing human CB1, cAMP; read-out: human CB1 EC50
T2 construct: expressed in transfected cells; host or cells: CHO cells
In short: as §1

T1 sequence (P34972 whole entry): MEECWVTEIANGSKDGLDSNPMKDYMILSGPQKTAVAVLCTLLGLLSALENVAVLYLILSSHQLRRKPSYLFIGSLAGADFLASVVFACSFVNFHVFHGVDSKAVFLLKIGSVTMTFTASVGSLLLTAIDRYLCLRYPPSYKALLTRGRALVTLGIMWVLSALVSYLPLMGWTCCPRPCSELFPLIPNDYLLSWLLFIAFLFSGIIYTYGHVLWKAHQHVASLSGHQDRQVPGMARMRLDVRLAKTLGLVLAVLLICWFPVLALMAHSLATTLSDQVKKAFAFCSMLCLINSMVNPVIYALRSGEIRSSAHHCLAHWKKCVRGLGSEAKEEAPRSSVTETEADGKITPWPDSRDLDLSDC
T2 sequence (P21554 whole entry): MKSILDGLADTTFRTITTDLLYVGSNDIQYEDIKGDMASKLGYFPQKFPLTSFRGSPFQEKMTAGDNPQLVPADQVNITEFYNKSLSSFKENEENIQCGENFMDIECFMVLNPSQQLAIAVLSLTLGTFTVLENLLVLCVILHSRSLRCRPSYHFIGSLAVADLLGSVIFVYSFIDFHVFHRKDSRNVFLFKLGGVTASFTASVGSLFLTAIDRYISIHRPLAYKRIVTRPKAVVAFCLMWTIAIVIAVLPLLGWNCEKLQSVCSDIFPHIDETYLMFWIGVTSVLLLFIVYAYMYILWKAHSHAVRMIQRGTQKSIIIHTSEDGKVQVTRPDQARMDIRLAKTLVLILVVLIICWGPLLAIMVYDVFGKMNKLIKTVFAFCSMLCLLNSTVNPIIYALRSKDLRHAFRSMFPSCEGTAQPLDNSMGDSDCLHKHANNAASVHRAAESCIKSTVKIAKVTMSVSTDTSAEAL

| SMILES | EC50 [1] [nM] | EC50 [2] [nM] |
| --- | --- | --- |
| COc1ccccc1Cn1nnc2c(N3CCC(F)(F)C3)nc(C(C)(C)C)nc21 [Example 81, 5-tert-Butyl-7-(3,3-difluoro-pyrrolidin-1-yl)-3-(2-methoxy-benzyl)-3H-[1,2,3]triazolo[4,5-d]pyrimidine] | 0.1 | 68.9 |
| CC(C)(C)c1nc(N2CCC(F)(F)C2)c2nnn(Cc3ccccc3OC(F)(F)F)c2n1 [Example 82, 5-tert-Butyl-7-(3,3-difluoro-pyrrolidin-1-yl)-3-(2-trifluoromethoxy-benzyl)-3H-[1,2,3]triazolo[4,5-d]pyrimidine] | 0.2 | 252 |
| CC(C)(C)c1nc(N2CCC(F)(F)C2)c2nnn(Cc3ccccc3C#N)c2n1 [Example 83, 2-[5-tert-Butyl-7-(3,3-difluoro-pyrrolidin-1-yl)-[1,2,3]triazolo[4,5-d]pyrimidin-3-ylmethyl]-benzonitrile] | 0.1 | 283 |
| CC(C)(C)c1nc(N2CCC(F)(F)C2)c2nnn(CCc3ccccc3)c2n1 [Example 84, 5-tert-Butyl-7-(3,3-difluoro-pyrrolidin-1-yl)-3-phenethyl-3H-[1,2,3]triazolo[4,5-d]pyrimidine] | 1.2 | 451 |
| C[C@H](c1ccccc1Cl)n1nnc2c(N3CCC(F)(F)C3)nc(C(C)(C)C)nc21 [Example 86] | 0.4 | 371 |
| C[C@@H](c1ccccc1Cl)n1nnc2c(N3CCC(F)(F)C3)nc(C(C)(C)C)nc21 [Example 87] | 1 | 270 |
| CC(C)(C)c1nc(N2CCC(F)(F)C2)c2nnn(CC(O)c3ccccc3)c2n1 (stereo not shown) [Example 88, 2-[5-tert-Butyl-7-(3,3-difluoro-pyrrolidin-1-yl)-[1,2,3]triazolo[4,5-d]pyrimidin-3-yl]-1-phenyl-ethanol] | 0.9 | 391 |
| CC(C)(C)c1nc(N2CCC(F)(F)C2)c2nnn(Cc3cccc(F)c3Cl)c2n1 [Example 89, 5-tert-Butyl-3-(2-chloro-3-fluoro-benzyl)-7-(3,3-difluoro-pyrrolidin-1-yl)-3H-[1,2,3]triazolo[4,5-d]pyrimidine] | 0.3 | 463 |
| CC(C)(C)c1nc(N2CCC(F)(F)C2)c2nnn(Cc3cc(F)ccc3Cl)c2n1 [Example 90, 5-tert-Butyl-3-(2-chloro-5-fluoro-benzyl)-7-(3,3-difluoro-pyrrolidin-1-yl)-3H-[1,2,3]triazolo[4,5-d]pyrimidine] | 0.5 | 370 |
| CC(C)(C)c1nc(N2C[C@@H](O)C[C@@H]2CO)c2nnn(Cc3ccccc3Cl)c2n1 [Example 93, (3S,5R)-1-[5-tert-Butyl-3-(2-chloro-benzyl)-3H-[1,2,3]triazolo[4,5-d]pyrimidin-7-yl]-5-hydroxymethyl-pyrrolidin-3-ol] | 4.5 | > 10000 |
| CC(C)(C)c1nc(N2CC(F)(F)C[C@@H]2CO)c2nnn(Cc3ccccc3Cl)c2n1 [Example 94, {(R)-1-[5-tert-Butyl-3-(2-chloro-benzyl)-3H-[1,2,3]triazolo[4,5-d]pyrimidin-7-yl]-4,4-difluoro-pyrrolidin-2-yl}-methanol] | 1 | > 10000 |
| CC(C)(C)c1nc(N2CCC(F)(F)C2)c2nnn(Cc3c(Cl)ccc(F)c3Cl)c2n1 [Example 96, 5-tert-Butyl-3-(2,6-dichloro-3-fluoro-benzyl)-7-(3,3-difluoro-pyrrolidin-1-yl)-3H-[1,2,3]triazolo[4,5-c]pyrimidine] | 0.1 | 167 |
| CC(C)(C)c1nc(N2CCC(F)(F)C2)c2nnn(Cc3cccnc3Cl)c2n1 [Example 97, 5-tert-Butyl-3-(2-chloro-pyridin-3-ylmethyl)-7-(3,3-difluoro-pyrrolidin-1-yl)-3H-[1,2,3]triazolo[4,5-c]pyrimidine] | 0.1 | 62.3 |
| CC(C)(C)c1nc(N2CCC(F)(F)C2)c2nnn(Cc3ncccc3Cl)c2n1 [Example 98, 5-tert-Butyl-3-(3-chloro-pyridin-2-ylmethyl)-7-(3,3-difluoro-pyrrolidin-1-yl)-3H-[1,2,3]triazolo[4,5-d]pyrimidine] | 0.1 | 98 |
| CC(C)(C)c1nc(N2CCC(F)(F)C2)c2nnn(Cc3cc(Cl)cnc3Cl)c2n1 [Example 99, 5-tert-Butyl-3-(2,5-dichloro-pyridin-3-ylmethyl)-7-(3,3-difluoro-pyrrolidin-1-yl)-3H-[1,2,3]triazolo[4,5-d]pyrimidine] | 0.2 | 497 |
| CC(C)(C)c1nc(N2CCC(F)(F)C2)c2nnn(Cc3nc(Cl)ccc3Cl)c2n1 [Example 100, 5-tert-Butyl-3-(3,6-dichloro-pyridin-2-ylmethyl)-7-(3,3-difluoro-pyrrolidin-1-yl)-3H-[1,2,3]triazolo[4,5-d]pyrimidine] | 0.1 | 110 |

| SMILES | EC50 [1] [nM] | EC50 [2] [nM] |
| --- | --- | --- |
| Cc1nonc1Cn1nnc2c(N3CCC(F)(F)C3)nc(C(C)(C)C)nc21 [Example 101, 5-tert-Butyl-7-(3,3-difluoro-pyrrolidin-1-yl)-3-(4-methyl-furazan-3-ylmethyl)-3H-[1,2,3]triazolo[4,5-d]pyrimidine] | 0.1 | > 10000 |
| Cc1noc(Cn2nnc3c(N4CCC(F)(F)C4)nc(C(C)(C)C)nc32)n1 [Example 102, 5-tert-Butyl-7-(3,3-difluoro-pyrrolidin-1-yl)-3-(3-methyl-[1,2,4]oxadiazol-5-ylmethyl)-3H-[1,2,3]triazolo[4,5-d]pyrimidine] | 0.6 | > 10000 |
| CC(C)(C)c1nc(N2CCC(F)(F)C2)c2nnn(CCc3ccccc3Cl)c2n1 [Example 103, 5-tert-Butyl-3-[2-(2-chloro-phenyl)-ethyl]-7-(3,3-difluoro-pyrrolidin-1-yl)-3H-[1,2,3]triazolo[4,5-d]pyrimidine] | 0.4 | 415 |
| CC(C)(C)c1nc(N2CCC(F)(F)C2)c2nnn(CCc3cccc(Cl)c3)c2n1 [Example 104, 5-tert-Butyl-3-[2-(3-chloro-phenyl)-ethyl]-7-(3,3-difluoro-pyrrolidin-1-yl)-3H-[1,2,3]triazolo[4,5-d]pyrimidine] | 0.9 | > 10000 |
| CC(C)(C)c1nc(N2CCC(F)(F)C2)c2nnn(CCc3ccc(Cl)cc3)c2n1 [Example 105, 5-tert-Butyl-3-[2-(4-chloro-phenyl)-ethyl]-7-(3,3-difluoro-pyrrolidin-1-yl)-3H-[1,2,3]triazolo[4,5-d]pyrimidine] | 6.5 | > 10000 |
| COc1ccc(Cn2nnc3c(N4CC[C@H](O)C4)nc(C(C)(C)C)nc32)cc1 [Example 106, (S)-1-[5-tert-Butyl-3-(4-methoxy-benzyl)-3H-[1,2,3]triazolo[4,5-d]pyrimidin-7-yl]-pyrrolidin-3-ol] | 4.8 | > 10000 |
| CC(C)(C)c1nc(N2CCC(F)(F)C2)c2nnn([C@@H]3CCOC3)c2n1 [Example 108, 5-tert-Butyl-7-(3,3-difluoro-pyrrolidin-1-yl)-3-(R)-tetrahydro-furan-3-yl-3H-[1,2,3]triazolo[4,5-d]pyrimidine] | 0.3 | > 10000 |
| CC(C)(C)c1nc(N2CCC(F)(F)C2)c2nnn([C@H]3CCOC3)c2n1 [Example 109, 5-tert-Butyl-7-(3,3-difluoro-pyrrolidin-1-yl)-3-(S)-tetrahydro-furan-3-yl-3H-[1,2,3]triazolo[4,5-d]pyrimidine] | 0.5 | > 10000 |
| CC(C)(C)c1nc(N2CCC(F)(F)C2)c2nnn(CC(=O)c3ccccc3Cl)c2n1 [Example 110, 2-[5-tert-Butyl-7-(3,3-difluoro-pyrrolidin-1-yl)-[1,2,3]triazolo[4,5-d]pyrimidin-3-yl]-1-(2-chloro-phenyl)-ethanone] | 0.2 | 250 |
| CC(C)(C)c1nc(N2CCC(F)(F)C2)c2nnn(Cc3c(F)ccc(Cl)c3Cl)c2n1 [Example 111, 5-tert-Butyl-3-(2,3-dichloro-6-fluoro-benzyl)-7-(3,3-difluoro-pyrrolidin-1-yl)-3H-[1,2,3]triazolo[4,5-d]pyrimidine] | 0.2 | 137 |
| CC(C)(C)c1nc(N2CCC(F)(F)C2)c2nnn(Cc3ccccc3S(C)(=O)=O)c2n1 [Example 112, 5-tert-Butyl-7-(3,3-difluoro-pyrrolidin-1-yl)-3-(2-methanesulfonyl-benzyl)-3H-[1,2,3]triazolo[4,5-d]pyrimidine] | 0.1 | 4.7 |
| CC(C)(C)c1nc(N2CCC(F)(F)C2)c2nnn(CCc3ccccn3)c2n1 [Example 113, 5-tert-Butyl-7-(3,3-difluoro-pyrrolidin-1-yl)-3-(2-pyridin-2-yl-ethyl)-3H-[1,2,3]triazolo[4,5-d]pyrimidine] | 0.2 | 201 |
| CC1(Cn2nnc3c(N4CCC(F)(F)C4)nc(C(C)(C)C)nc32)COC1 [Example 114, 5-tert-Butyl-7-(3,3-difluoro-pyrrolidin-1-yl)-3-(3-methyl-oxetan-3-ylmethyl)-3H-[1,2,3]triazolo[4,5-d]pyrimidine] | 0.4 | > 10000 |
| CC(C)(C)c1nc(N2CCC(F)(F)C2)c2nnn(CC(=O)c3cccc(Cl)c3)c2n1 [Example 115, 2-[5-tert-Butyl-7-(3,3-difluoro-pyrrolidin-1-yl)-[1,2,3]triazolo[4,5-d]pyrimidin-3-yl]-1-(3-chloro-phenyl)-ethanone] | 0.4 | > 10000 |
| CC(C)(C)c1nc(N2CCC(F)(F)C2)c2nnn(CC(=O)c3ccc(Cl)cc3)c2n1 [Example 116, 2-[5-tert-Butyl-7-(3,3-difluoro-pyrrolidin-1-yl)-[1,2,3]triazolo[4,5-d]pyrimidin-3-yl]-1-(4-chloro-phenyl)-ethanone] | 3 | > 10000 |
| CC(C)(C)c1nc(N2CCC(F)(F)C2)c2nnn(CC(=O)c3cccnc3)c2n1 [Example 117, 2-[5-tert-Butyl-7-(3,3-difluoro-pyrrolidin-1-yl)-[1,2,3]triazolo[4,5-d]pyrimidin-3-yl]-1-pyridin 3-yl-ethanone] | 0.2 | > 10000 |
